Our source for the melting point and IC50 values is patent US6964957B2, “Fused pyrazole compounds, pharmaceutical compositions, and methods for modulating or inhibiting ERAB or HADH2 activity” (Agouron Pharmaceuticals, Inc., priority 2000, dated 2005).

The target of data set [1] is T1, ERAB (L-3-hydroxyacyl-CoA dehydrogenase) (Homo sapiens, UniProt Q99714).
T1 sequence (Q99714 1-261): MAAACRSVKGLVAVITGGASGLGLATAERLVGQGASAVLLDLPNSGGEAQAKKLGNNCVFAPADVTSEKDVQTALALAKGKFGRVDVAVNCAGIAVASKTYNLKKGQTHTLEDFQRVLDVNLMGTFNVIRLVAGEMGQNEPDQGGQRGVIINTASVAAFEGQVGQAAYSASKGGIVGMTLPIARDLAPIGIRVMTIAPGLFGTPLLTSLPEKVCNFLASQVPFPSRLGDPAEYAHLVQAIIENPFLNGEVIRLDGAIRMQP
Briefly: ERAB enzyme assay (loss of NADH absorbance at 340 nm, acetoacetyl-CoA as substrate). Format: biochemical. To be noted: 2.5 nM enzyme preincubated with inhibitor 400 seconds at 30° C., pH 7.5, 36 uM NADH, 2% DMSO; started with acetoacetyl-CoA (38 uM). As to the method:
The activity of ERAB (L-3-hydroxyacyl-CoA dehydrogenase) in the reverse direction was determined by a modified version of a method previously described (Binstock et al., Methods Enzymol., 71, 403-411 (1981)). This method is based on the enzyme-catalyzed loss of NADH absorbance at 340 nm with a change in the millimolar extinction coefficient of 6.22 mM^−1 cm^−1. The IC50 value for compounds of the Formula I were determined spectrophotometrically by monitoring the […] with acetoacetyl-CoA as substrate and are reported in Table 1. Assay conditions were 25 mM MOPS, 250 mM NaCl, 2% DMSO, 2.5 mM TCEP, pH 7.5, 30° C. NADH and ERAB were included at 40 uM and 2.5 nM, respectively. Stock solutions of ERAB, prepared in assay buffer, were 1 uM and contained 100 uM NADH for enzyme stability. The assay was run as follows: Enzyme (2.5 nM) was preincubated with inhibitor (without acetoacetyl-CoA present) for 400 seconds at 30° C. in the presence of 36 uM NADH, 25 mM MOPS, pH 7.5, 250 mM NaCl, 2%(v/v) DMSO, and 2.5 mM TCEP. The reaction was initiated by addition of substrate (acetoacetyl-CoA) (38 uM). Reduction of NADH was monitored at 340λ. Initial rates were calculated over a time frame where less than 10% of substrates had been consumed in an uninhibited reaction. For Ki, app determination, inhibitors were added during the preincubation stage from DMSO stock solutions for a final and constant 2% DMSO concentration. Initial rates were calculated and fitted, using non-linear fitting techniques, to the Michaelis equation for enzyme inhibition. The IC50 value was determined by non-linear regression analysis using KaleidaGraph (obtained from Synergy Software, Reading, Pa.).

Each structure is given as a SMILES string.

What is called melting point is the temperature of the solid-liquid transition. The term IC50 denotes the concentration needed to halve the response being measured. Compound `O=C(C(c1ccccc1)n1cnc2[nH]ncc2c1=S)N1CCN(c2ccccn2)CC1` (stereo not shown) [XVIi, 2-Phenyl-1-(4-pyridin-2-yl-piperazin-1-yl)-2-(4-thioxo-1,4-dihydro-pyrazolo[3,4-d]pyrimidin-5-yl)-ethanone] had a melting point of 242 to 246 °C. In data set [1], the IC50 was 389 nM.

With `O=C(C(c1ccccc1)n1cnc2[nH]ncc2c1=S)N1CCCCCC1` (stereo not shown) [XVIa, 1-Azepan-1-yl-2-phenyl-2-(4-thioxo-1,4-dihydro-1,4-dihrdropyrazolo[3,4-d]pyrimidin-5-yl)-ethanone], the half-inhibitory concentration (IC50) in data set [1] came out at 97 nM.

Compound `CC1(O)CCN(C(=O)C(c2ccccc2)n2cnc3[nH]ncc3c2=S)CC1` (stereo not shown) [XVIp, 1-(4-Methyl-4-hydroxy-piperidin-1-yl)-2-phenyl-2-(4-thioxo-1,4-dihydro-pyrazolo[3,4-d]pyrimidin-5-yl)-ethanone] yielded a melting point of 140 to 144 °C. Besides, the IC50 in data set [1] stood at 210 nM.

As to `COc1ccc(N2CCN(C(=O)C(c3ccccc3)n3cnc4[nH]ncc4c3=S)CC2)cc1` (stereo not shown) [XVIk, 1-[4-(4-Methoxy-phenyl)-piperazin-1-yl]-2-phenyl-2-(4-thioxo-1,4-dihydro-pyrazolo[3,4-d]pyrimidin-5-yl)-ethanone], the melting point was 114 to 118 °C. Also, in data set [1], the half-maximal inhibitory concentration (IC50) stood at 300 nM.

Consider `O=C(C(c1ccccc1)n1cnc2[nH]ncc2c1=O)N1CCCCCC1` (stereo not shown) [L], for which the concentration for half-maximal inhibition (IC50) in data set [1] came out at 7100 nM.

As to `C=CCOc1cccc(C(C(=O)N2CCCCCC2)n2cnc3[nH]ncc3c2=S)c1` (stereo not shown) [XVIt, 2-(3-Allyoxy-phenyl)-1-azepan-1-yl-2-(4-thioxo-1,4-dihydro-pyrazolo[3,4-d]pyrimidin-5-yl)-ethanone], the melting point was 75 to 80 °C. The IC50 in data set [1] was 345 nM.

`O=C(C(c1ccccc1)n1cnc2[nH]ncc2c1=S)N1CCC(O)(c2ccccn2)CC1` (stereo not shown) [XVIm, 1-(4-Hydroxy-3′,4′,5′,6′-tetrahydro-2H-[2,4]bipyridinyl-1′-yl]-2-phenyl-2-(4-thioxo-1,4-dihydro-pyrazolo[3,4-d]pyrimidin-5-yl)-ethanone] showed a melting point of 138 to 142 °C. In data set [1], the IC50 was 279 nM.

For the compound `O=C(C(c1ccccc1)n1cnc2[nH]ncc2c1=S)N1CCCCC1` (stereo not shown) [XXVa], the half-inhibitory concentration (IC50) in data set [1] was 774 nM.

`O=C(C(c1ccccc1)n1cnc2[nH]ncc2c1=S)N1CCC(O)(c2ccccc2)CC1` (stereo not shown) [XVIf, 1-(4-Hydroxy-4-phenyl-piperidin-1-yl)-2phenyl-2-(4-thioxo-1,4-dihydro-1,4-dihydro-pyrazolo[3,4-d]pyrimidin-5-yl)-ethanone] had a melting point of 142 to 146 °C. Besides, the 50% inhibitory concentration (IC50) in data set [1] worked out at 81 nM.

As to `O=C(C(c1ccccc1)n1cnc2[nH]ncc2c1=S)N1CCC(c2ccccc2)CC1` (stereo not shown) [XXVb], the IC50 in data set [1] was determined as 216 nM.

In turn, `O=C(C(c1ccccc1)n1cnc2[nH]ncc2c1=S)N1CCC(O)(c2ccc(Br)cc2)CC1` (stereo not shown) [XVIg] showed a melting point of 155 to 160 °C. Also, the 50% inhibitory concentration (IC50) in data set [1] turned out to be 82 nM.

In the case of `O=C(C(c1cccc(O)c1)n1cnc2[nH]ncc2c1=S)N1CCCCCC1` (stereo not shown) [XXVc], the IC50 in data set [1] turned out to be 51 nM.

Regarding `CC(c1ccccc1)n1cnc2[nH]ncc2c1=S` (stereo not shown) [LVIIIa, 5-(1-Phenyl-ethyl)-1,5-dihydro-pyrazolo[3,4-d]pyrimidine-4-thione], the melting point was 170 to 174 °C. The IC50 in data set [1] was 22000 nM.

`CC(c1ccccc1)n1cnc2[nH]ncc2c1=O` (stereo not shown) [LVII, 5-(1-Phenyl-ethyl)-1,5-dihydro-pyrazolo[3,4-d]pyrimidine-4-one] showed a melting point of 210 to 214 °C. In addition, in data set [1], the half-inhibitory concentration (IC50) came to 494000 nM.

In the case of `O=C(OC1CCCCC1)C(c1ccccc1)n1cnc2[nH]ncc2c1=O` (stereo not shown) [XIa, (4-Oxo-1,4-dihydro-pyrazolo[3,4-d]pyrimidin-5-yl)-phenyl-acetic acid cyclohexyl ester], the melting point lay within 176 to 180 °C. For the same compound, the IC50 in data set [1] was 30000 nM.

The compound `O=C(C(c1ccccc1)n1cnc2[nH]ncc2c1=S)N1CCCCCCC1` (stereo not shown) [XVIe, 1-Azocan-1-yl-2-phenyl-2-(4-thioxo-1,4-dihydro-1,4-dihydropyrazolo[3,4-d]pyrimidin-5-yl)-ethanone] registered a melting point of 92 to 95 °C. Besides, the IC50 in data set [1] amounted to 96 nM.

`C=CCOc1cccc(C(C(=O)N2CCC(O)(c3ccccc3)CC2)n2cnc3[nH]ncc3c2=S)c1` (stereo not shown) [XVIs, 2-(3-Allyoxy-phenyl)-1-(4-hydroxy-4-phenyl-piperidin-1-yl)-2-(4-thioxo-1,4-dihydro-pyrazolo[3,4-d]pyrimidin-5-yl)-ethanone] had a melting point of 116 to 120 °C. Besides, in data set [1], the half-inhibitory concentration (IC50) worked out at 406 nM.

For the compound `CN(C(=O)C(c1ccccc1)n1cnc2[nH]ncc2c1=S)c1ccccc1` (stereo not shown) [XXVe], in data set [1], the IC50 stood at 749 nM.

Regarding `CCCCC1(O)CCN(C(=O)C(c2ccccc2)n2cnc3[nH]ncc3c2=S)CC1` (stereo not shown) [XXVd], the concentration for half-maximal inhibition (IC50) in data set [1] came to 71 nM.

Take `O=C(C(c1ccccc1)n1cnc2[nH]ncc2c1=S)N1CCN(c2ccccc2)CC1` (stereo not shown) [XVIj, 2-Phenyl-1-(4-phenyl-2-yl-piperazin-1-yl)-2-(4-thioxo-1,4-dihydro-pyrazolo[3,4-d]pyrimidin-5-yl)-ethanone]: the melting point is 241 to 245 °C. The IC50 in data set [1] came out at 218 nM.

Compound `CCN(CC)C(=O)C(c1ccccc1)n1cnc2[nH]ncc2c1=S` (stereo not shown) [XVIr, N,N-Diethyl-2-phenyl-2-(4-thioxo-1,4-dihydro-pyrazolo[3,4-d]pyrimidin-5-yl)-acetamide] registered a melting point of 143 to 146 °C. For the same compound, in data set [1], the IC50 turned out to be 93 nM.

Turning to `CC(=O)C1(c2ccccc2)CCN(C(=O)C(c2ccccc2)n2cnc3[nH]ncc3c2=S)CC1` (stereo not shown) [XVIh, 1-(4-Acetyl-4-phenyl-piperidin-1-yl)-2-phenyl-2-(4-thioxo-1,4-dihydro-pyrazolo[3,4-d]pyrimidin-5-yl)-ethanone], the 50% inhibitory concentration (IC50) in data set [1] is 766 nM.

In the case of `CCCCC1(O)CCN(C(=O)C(c2ccccc2)n2cnc3[nH]ncc3c2=S)CC1` (stereo not shown) [XVIn, 1-(4-Butyl-4-hydroxy-piperidin-1-yl)-2-phenyl-2-(4-thioxo-1,4-dihydro-pyrazolo[3,4-d]pyrimidin-5-yl)-ethanone], the melting point fell in the range of 98 to 102 °C.

On to `CCN(C(=O)C(c1ccccc1)n1cnc2[nH]ncc2c1=S)C(C)C` (stereo not shown) [XVIq, N-Ethyl-N-isopropyl-2-phenyl-2-(4-thioxo-1,4-dihydro-pyrazolo[3,4d]pyrimidin-5-yl)-acetamide], for which the IC50 in data set [1] was 2800 nM.

Regarding `O=C(O)C(c1ccccc1)n1cnc2[nH]ncc2c1=S` (stereo not shown) [XIVa, 2-Phenyl-(4-thioxo-1,4-dihydro-pyrazolo [3,4-d]pyrimidin-5-yl)acetic acid], the melting point is 95 to 98 °C. In data set [1], the concentration for half-maximal inhibition (IC50) was found to be 514000 nM.

Regarding `CON(C)C(=O)C(c1ccccc1)n1cnc2[nH]ncc2c1=S` (stereo not shown) [XVIb, N-Methoxy-N-methyl-2-phenyl-2-(4-thioxo-1,4-dihydro-1,4-dihydro-pyrazolo[3,4-d]pyrimidin-5-yl)-ethanone], the melting point lay within 82 to 86 °C. Moreover, in data set [1], the concentration for half-maximal inhibition (IC50) worked out at 1500 nM.

With `O=C(OC1CCCCC1)C(c1ccccc1)n1cnc2[nH]ncc2c1=S` (stereo not shown) [XIIa, 2-Phenyl-(4-thioxo-1,4-dihydro-pyrazolo[3,4-d]pyrimidin-5-yl)-acetic acid cyclohexyl ester], the melting point fell in the range of 170 to 173 °C. The IC50 in data set [1] was 1200 nM.

Regarding `O=C(C(c1ccccc1)n1cnc2[nH]ncc2c1=S)N1CCCC(O)C1` (stereo not shown) [XVIc, 1-(3-Hydroxy-piperidin-1-yl)-2-phenyl-2-(4-thioxo-1,4-dihydro-1,4-dihydro-pyrazolo[3,4-d]pyrimidin-5-yl)-ethanone], in data set [1], the 50% inhibitory concentration (IC50) came out at 1800 nM.

Consider `C=CCOc1cccc(C(C(=O)OC2CCCCC2)n2cnc3[nH]ncc3c2=S)c1` (stereo not shown) [XXIII], for which the IC50 in data set [1] was 11000 nM.
